These results are taken from publication PMC7486443, “Generation of Phenothiazine with Potent Anti-TLK1 Activity for Prostate Cancer Therapy” (iScience, 2020).

Some targets named below: MAP4K5 (Homo sapiens, UniProt Q9Y4K4); BMPR2 (Homo sapiens, UniProt Q13873); PIK3C2B (Homo sapiens, UniProt O00750); MAP3K4 (Homo sapiens, UniProt Q9Y6R4); ANKK1 (Homo sapiens, UniProt Q8NFD2); PRKG2 (Homo sapiens, UniProt Q13237); MYLK2 (Homo sapiens, UniProt Q9H1R3); EPHA2 (Homo sapiens, UniProt P29317); SRPK2 (Homo sapiens, UniProt P78362); DAPK3 (Homo sapiens, UniProt O43293); EGFR(L861Q) (Homo sapiens, UniProt P00533, L861Q); CHEK2 (Homo sapiens, UniProt O96017); PAK6 (Homo sapiens, UniProt Q9NQU5); CDKL5 (Homo sapiens, UniProt O76039); EPHB2 (Homo sapiens, UniProt P29323); CDK5 (Homo sapiens, UniProt Q00535).

Common to all, as to assay: biochemical
What all share (design): DiscoverX KINOMEscan scanMAX competition binding panel, single concentration, percent of control; remaining binding: dose or concentration left out as unconfirmed
Holding throughout (details): KINOMEscan binding, percent of control; read-out: Table S4_SCANMAX REPORT - related to Fig. 1 / Percent Control

A further assay has as its target T1, CAMK1B (Homo sapiens, UniProt Q6P2M8).
T1 construct: gene PNCK

The target in assay [1] is T2, ABL1(Q252H)-phosphorylated (Homo sapiens, UniProt P00519, Q252H).
T2 construct: phosphorylated

In the next assay the target is T3, VPS34 (Homo sapiens, UniProt Q8NEB9).
T3 construct: gene PIK3C3

SMILES strings stand for the structures.

Sequence of SRPK2 (P78362 whole entry): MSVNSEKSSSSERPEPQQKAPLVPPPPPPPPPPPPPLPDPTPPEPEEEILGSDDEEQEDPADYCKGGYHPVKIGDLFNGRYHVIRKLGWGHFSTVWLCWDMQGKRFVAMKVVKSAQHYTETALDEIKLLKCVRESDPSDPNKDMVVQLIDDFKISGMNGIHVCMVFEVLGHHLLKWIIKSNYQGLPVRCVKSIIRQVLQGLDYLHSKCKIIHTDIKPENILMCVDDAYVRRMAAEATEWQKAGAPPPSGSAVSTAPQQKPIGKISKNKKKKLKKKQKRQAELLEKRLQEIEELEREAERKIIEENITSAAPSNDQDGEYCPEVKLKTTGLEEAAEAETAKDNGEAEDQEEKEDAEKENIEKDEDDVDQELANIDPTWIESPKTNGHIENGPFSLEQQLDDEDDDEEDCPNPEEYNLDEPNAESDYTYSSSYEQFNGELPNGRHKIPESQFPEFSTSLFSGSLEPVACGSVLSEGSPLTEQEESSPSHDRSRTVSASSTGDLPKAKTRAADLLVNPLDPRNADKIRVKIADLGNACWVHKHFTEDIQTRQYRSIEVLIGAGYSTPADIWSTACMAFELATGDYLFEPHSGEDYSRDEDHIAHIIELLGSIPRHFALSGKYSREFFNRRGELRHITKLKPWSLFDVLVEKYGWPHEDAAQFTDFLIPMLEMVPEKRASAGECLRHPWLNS
Sequence of DAPK3 (O43293 whole entry): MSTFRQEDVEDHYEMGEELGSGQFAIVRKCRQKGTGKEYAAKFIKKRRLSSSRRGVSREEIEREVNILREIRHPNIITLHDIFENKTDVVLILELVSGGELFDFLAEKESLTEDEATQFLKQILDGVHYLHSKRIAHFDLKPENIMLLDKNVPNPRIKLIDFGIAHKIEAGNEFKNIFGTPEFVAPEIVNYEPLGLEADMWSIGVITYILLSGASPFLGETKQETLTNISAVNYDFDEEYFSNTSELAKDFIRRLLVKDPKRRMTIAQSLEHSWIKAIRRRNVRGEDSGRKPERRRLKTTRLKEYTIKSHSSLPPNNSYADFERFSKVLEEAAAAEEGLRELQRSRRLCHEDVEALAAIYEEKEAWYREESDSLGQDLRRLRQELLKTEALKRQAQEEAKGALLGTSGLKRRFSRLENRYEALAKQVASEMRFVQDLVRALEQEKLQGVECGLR
Sequence of EPHA2 (P29317 whole entry): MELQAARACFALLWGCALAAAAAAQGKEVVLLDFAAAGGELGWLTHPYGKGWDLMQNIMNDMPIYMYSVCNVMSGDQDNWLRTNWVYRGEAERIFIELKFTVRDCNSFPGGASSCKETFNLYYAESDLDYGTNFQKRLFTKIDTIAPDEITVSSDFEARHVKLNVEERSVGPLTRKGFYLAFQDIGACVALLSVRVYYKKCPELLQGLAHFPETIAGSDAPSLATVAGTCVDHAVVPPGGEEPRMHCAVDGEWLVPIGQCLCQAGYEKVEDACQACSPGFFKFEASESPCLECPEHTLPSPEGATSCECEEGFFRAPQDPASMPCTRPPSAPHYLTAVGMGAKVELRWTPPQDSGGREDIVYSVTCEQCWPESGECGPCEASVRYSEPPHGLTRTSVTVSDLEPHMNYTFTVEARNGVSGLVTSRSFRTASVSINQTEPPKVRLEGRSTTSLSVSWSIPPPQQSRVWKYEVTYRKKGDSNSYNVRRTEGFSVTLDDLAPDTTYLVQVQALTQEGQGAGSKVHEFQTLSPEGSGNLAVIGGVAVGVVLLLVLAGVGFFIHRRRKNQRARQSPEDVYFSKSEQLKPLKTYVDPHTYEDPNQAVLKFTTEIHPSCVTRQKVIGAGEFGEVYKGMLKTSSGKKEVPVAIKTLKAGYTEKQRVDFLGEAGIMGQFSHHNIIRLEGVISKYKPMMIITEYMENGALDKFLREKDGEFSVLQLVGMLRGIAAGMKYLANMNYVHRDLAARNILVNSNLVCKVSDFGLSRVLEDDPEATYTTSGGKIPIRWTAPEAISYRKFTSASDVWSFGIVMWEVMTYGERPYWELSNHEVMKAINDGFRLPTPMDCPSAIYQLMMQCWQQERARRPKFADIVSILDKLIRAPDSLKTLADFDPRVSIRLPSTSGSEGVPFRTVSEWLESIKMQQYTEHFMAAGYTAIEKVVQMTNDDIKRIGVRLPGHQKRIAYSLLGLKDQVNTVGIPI
Sequence of CHEK2 (O96017 whole entry): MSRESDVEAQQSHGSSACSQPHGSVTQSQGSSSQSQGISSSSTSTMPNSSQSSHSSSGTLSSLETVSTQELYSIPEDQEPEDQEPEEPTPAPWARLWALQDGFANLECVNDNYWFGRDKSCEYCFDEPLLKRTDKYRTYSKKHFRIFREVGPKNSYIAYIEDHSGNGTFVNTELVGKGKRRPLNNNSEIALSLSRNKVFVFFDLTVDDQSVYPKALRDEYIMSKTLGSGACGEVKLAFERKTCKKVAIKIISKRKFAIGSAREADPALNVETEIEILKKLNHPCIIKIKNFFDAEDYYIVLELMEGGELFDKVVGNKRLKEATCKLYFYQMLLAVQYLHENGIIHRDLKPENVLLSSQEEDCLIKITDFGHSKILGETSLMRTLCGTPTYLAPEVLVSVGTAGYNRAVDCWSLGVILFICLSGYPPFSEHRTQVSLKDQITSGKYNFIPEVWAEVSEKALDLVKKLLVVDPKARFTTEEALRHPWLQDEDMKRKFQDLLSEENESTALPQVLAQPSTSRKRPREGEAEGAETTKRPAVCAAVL
Sequence of BMPR2 (Q13873 whole entry): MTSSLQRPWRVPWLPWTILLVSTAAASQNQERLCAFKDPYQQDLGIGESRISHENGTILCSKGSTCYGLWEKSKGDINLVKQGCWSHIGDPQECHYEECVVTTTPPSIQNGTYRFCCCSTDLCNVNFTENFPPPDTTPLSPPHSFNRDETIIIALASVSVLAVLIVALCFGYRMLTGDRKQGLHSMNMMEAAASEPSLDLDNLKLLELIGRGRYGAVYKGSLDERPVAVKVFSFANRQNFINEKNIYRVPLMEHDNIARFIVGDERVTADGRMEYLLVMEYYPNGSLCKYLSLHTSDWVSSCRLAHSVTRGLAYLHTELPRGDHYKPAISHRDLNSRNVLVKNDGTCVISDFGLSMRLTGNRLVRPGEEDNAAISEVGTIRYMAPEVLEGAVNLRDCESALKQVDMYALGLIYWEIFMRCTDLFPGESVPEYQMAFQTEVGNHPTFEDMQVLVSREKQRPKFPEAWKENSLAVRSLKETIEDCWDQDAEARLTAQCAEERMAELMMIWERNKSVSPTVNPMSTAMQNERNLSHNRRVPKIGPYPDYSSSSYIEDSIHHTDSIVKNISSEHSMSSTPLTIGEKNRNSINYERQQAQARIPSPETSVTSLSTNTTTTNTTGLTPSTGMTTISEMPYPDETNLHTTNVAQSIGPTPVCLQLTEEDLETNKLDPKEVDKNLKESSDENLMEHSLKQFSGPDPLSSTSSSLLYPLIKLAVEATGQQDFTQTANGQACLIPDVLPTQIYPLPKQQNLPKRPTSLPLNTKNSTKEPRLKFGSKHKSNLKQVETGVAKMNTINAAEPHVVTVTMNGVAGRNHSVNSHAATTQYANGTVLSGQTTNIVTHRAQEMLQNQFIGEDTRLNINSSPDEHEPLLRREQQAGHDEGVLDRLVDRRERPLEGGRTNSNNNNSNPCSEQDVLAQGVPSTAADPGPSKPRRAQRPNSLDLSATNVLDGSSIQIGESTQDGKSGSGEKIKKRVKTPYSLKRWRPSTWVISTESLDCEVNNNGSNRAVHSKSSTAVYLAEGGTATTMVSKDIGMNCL
Sequence of ANKK1 (Q8NFD2 whole entry): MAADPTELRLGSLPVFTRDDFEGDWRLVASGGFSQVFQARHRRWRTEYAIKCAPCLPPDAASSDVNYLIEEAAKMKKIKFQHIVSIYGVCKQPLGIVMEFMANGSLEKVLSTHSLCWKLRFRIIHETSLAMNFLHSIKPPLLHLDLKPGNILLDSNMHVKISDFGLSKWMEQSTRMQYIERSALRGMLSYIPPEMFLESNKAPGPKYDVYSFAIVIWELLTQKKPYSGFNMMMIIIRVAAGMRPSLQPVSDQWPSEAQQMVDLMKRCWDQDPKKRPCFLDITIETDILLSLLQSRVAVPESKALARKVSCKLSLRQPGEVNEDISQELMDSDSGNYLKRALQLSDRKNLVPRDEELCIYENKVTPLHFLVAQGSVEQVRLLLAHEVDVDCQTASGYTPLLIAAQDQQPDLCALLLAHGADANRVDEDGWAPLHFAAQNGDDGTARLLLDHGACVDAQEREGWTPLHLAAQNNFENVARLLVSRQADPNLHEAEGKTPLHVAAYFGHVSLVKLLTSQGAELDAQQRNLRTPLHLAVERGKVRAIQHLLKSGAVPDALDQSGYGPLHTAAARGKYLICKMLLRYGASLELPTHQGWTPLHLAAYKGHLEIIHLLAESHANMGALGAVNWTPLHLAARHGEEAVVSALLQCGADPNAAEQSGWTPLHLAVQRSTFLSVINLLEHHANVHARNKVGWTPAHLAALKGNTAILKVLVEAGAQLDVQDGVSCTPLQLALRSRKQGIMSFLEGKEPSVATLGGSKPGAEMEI
T1 sequence (Q6P2M8 whole entry): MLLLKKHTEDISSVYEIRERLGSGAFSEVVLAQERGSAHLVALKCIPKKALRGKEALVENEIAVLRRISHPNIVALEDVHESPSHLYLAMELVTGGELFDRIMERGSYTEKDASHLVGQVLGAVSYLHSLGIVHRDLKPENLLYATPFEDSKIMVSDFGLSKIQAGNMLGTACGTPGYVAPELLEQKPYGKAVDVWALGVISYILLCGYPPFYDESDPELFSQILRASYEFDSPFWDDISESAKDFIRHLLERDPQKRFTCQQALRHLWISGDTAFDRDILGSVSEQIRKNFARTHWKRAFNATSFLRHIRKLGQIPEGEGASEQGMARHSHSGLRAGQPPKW

For the compound `c1ccc2c(c1)Sc1ccccc1N2CCN1CCOCC1` [J54], the remaining binding was found to be 68% at MAP4K5; 100% at BMPR2; 96% on PIK3C2B; 94% at CAMK1B; 97% on MAP3K4; 100% at ANKK1. The remaining binding at PRKG2 came out at 99%; on MYLK2, 74%; at EPHA2, 100%; at SRPK2 it was 100%; on DAPK3, 96%; at EGFR(L861Q) it was 94%. Besides, the remaining binding in assay [1] was 90%; at VPS34, 86%; at CHEK2, 100%; on PAK6 it was 100%; at CDKL5 it was 100%; on EPHB2, 100%. On CDK5, the remaining binding came to 99%.
